Data as given in patent US20090176817A1, “Method of Treatment of Diarrhea-Predominant Irritable Bowel Syndrome in a Subject” (priority 2005, published 2009).
Marks after values point to notes of the source that are not given here.

Columns and labels:
[1] = clinical; format: in vitro ADME; conditions: male, human, plasma; 8 mg oral/IV, 30, 45, 120 minutes; read-out: Fraction bound
Experimental: Plasma protein binding was also measured in blood samples collected at 30, 45, and 120 minutes after dosing in a single-dose, crossover study in which cilansetron 8 mg was administered orally (solution and capsule) and intravenously to 18 male subjects. In samples where total and/or free concentrations were measurable, fraction bound was about 96-98%.

[2] = tested on: IBS patients; test: Study K.241.5016: colonic visceral perception; format: in vivo, human
Experimental: The effect of cilansetron on colonic visceral perception was evaluated in a randomized, doubleblind, placebo-controlled, 2-way crossover study in 16 male and female IBS patients (ITT population), aged 28-66 years. Subjects received single IV doses of placebo or cilansetron 16 mg as 30-minute infusions on two consecutive study days, with no washout between the study days. Colonic distension tests were performed just prior to dosing and after completion of the infusion during each treatment. An electronic barostat was used to produce distensions (successive 4 mmHg increases every 5 minutes, up to a sensation of abdominal pain or a maximum of 40 mmHg). The primary efficacy parameter was the mean distension pressure inducing a sensation of abdominal pain. Secondary effect parameters were the mean distension pressure inducing a sensation of abdominal discomfort, and the response rate, defined as the number of patients experiencing no abdominal pain at the maximum pressure of 40 mmHg. The primary and secondary parameters were compared between cilansetron and placebo treatments using an ANOVA.

[3] = tested on: healthy, elderly subjects; test: Study K.241.5014: gastric emptying time, elderly, 8 mg TID; format: in vivo, human; conditions: 8 mg TID oral 14 days, mean (SD)
Text: The effect of cilansetron on gastric emptying time and colonic transit time has been studied in 1 clinical study in healthy young subjects and 2 studies in elderly subjects. For measurement of gastric emptying time, breath samples for the determination of the ^12C/^13C ratio were taken on the last day of each treatment period immediately after ingestion of a ^13C labeled meal. The patients' breath was collected in separate 15-minute intervals, for four hours in total. ^13CO2 measurements were performed with an isotope ratio mass spectrometer. The half-life (TK) and lag-time (Tlag), which describe the duration of gastric emptying, were used as the primary parameters to evaluate gastric emptying time. In all 3 studies, colonic transit time was measured by administration of radio-opaque markers for the last six days of each treatment period, followed by a single abdominal X-ray image at 24 hours after ingestion of the last set of markers. The numbers of markers within the colon were used to calculate segmental (right colon, left colon, and rectosigmoid) and total colonic transit time.
Studies K.241.5013 and K.241.5014 were randomized, double-blind, placebo-controlled, 2-way crossover studies in 8 healthy male and female elderly subjects, each (ITT population, aged 64-83 years in K.241.5013 and 66-84 years in K.241.5014). […]

[4] = tested on: cytochrome P450 enzymes
Experimental: An in vitro study using human hepatic microsomes evaluated the effect of some enzyme inhibitors on the metabolism of cilansetron (100 μM).

[5] = clinical; conditions: human, in vivo
Experimental: Two randomized, double-blind, placebo controlled, balanced incomplete block design, crossover studies evaluated the single- and multiple-dose pharmacokinetics of oral cilansetron over a 8 mg to 32 mg dose range. In both studies, subjects were randomized to receive two of three treatments during 2 treatment periods. In one study (12 male and 13 female subjects, aged 23 to 36 years), subjects received 8 mg cilansetron, 16 mg cilansetron, or placebo, while in another study (12 males and 13 females, aged 23 to 41 years), subjects received 16 mg cilansetron, 32 mg cilansetron, or placebo. During each treatment period, subjects received a single dose of their assigned treatment on the first day, followed by a 3-day washout, after which they received the same treatment TID for 5 days.
There was a 5-6 day washout period between treatment periods. Doses on the mornings of pharmacokinetic days were administered under fasted conditions. Serial blood sampling and urine collection was performed up to 12 hours following morning dosing on the first day (single dose) and on the last multiple dosing day of each treatment period, and cilansetron pharmacokinetic parameters were evaluated.
In two randomized, double-blind, placebo controlled, balanced incomplete block design, crossover studies evaluating the single- and multiple-dose pharmacokinetics of oral cilansetron over a 8 mg to 32 mg dose range, subjects were randomized to receive two of three treatments during 2 treatment periods. In Study S.241.1.101; (12 male and 13 female subjects, aged 23 to 36 years), subjects received 8 mg cilansetron, 16 mg cilansetron, or placebo, while in Study S.24 1.1.102; (12 males and 13 females, aged 23 to 41 years), subjects received 16 mg cilansetron, 32 mg cilansetron, or placebo. During each treatment period, subjects received a single dose of their assigned treatment on the first day, followed by a 3-day washout, after which they received the same treatment TID for 5 days. There was a 5-6 day washout period between treatment periods. Doses on the mornings of pharmacokinetic days were administered under fasted conditions. Serial blood sampling and urine collection was performed up to 12 hours following morning dosing on the first day (single dose) and on the last multiple dosing day of each treatment period, and cilansetron pharmacokinetic parameters were evaluated.

[6] = 16 mg single IV dose, ANOVA, not significant
[7] = 16 mg single IV dose, postdose minus predose, IBS patients, mean (SD)

Compound: Cc1nccn1C[C@H]1CCc2c(c3cccc4c3n2CCC4)C1=O [Cilansetron, (R)-(−)-4,5,6,8,9,10-hexahydro-10-[(2-methyl-1H-imidazol-1-yl)methyl]-11H-pyrido-[3,2,1-jk]-carbazol-11-one]
- fraction unbound [1]: 0.02 to 0.04
- Responders (no abdominal pain at 40 mmHg) ([2]; 16 mg IV): 1 of 12
- Pressure inducing abdominal pain, Mean Difference to Placebo [2, 6]: −1.33 mmHg
- Pressure inducing abdominal sensation, Mean Difference to Placebo [2, 6]: −0.67 mmHg
- Pressure inducing abdominal pain, Difference Postdose [2, 7]: 3.67 (4.66) mmHg
- Pressure inducing abdominal sensation, Difference Postdose [2, 7]: 2.67 (3.55) mmHg
- gastric emptying time T½ [3]: 166 (18) min
- gastric emptying time Tlag ([3]; significant vs placebo (p < 0.05)): 114 (18)* min
- Inhibition of any other cytochrome P450 enzyme activity [4]: no inhibition
- Tmax ([5]; both): 1 h
- Tmax ([5]; both, 8 mg): 1 h
- AUC ([5]; both, 8 mg): 112 ng·h/mL
- Cmax ([5]; both, 8 mg): 43.3 ng/mL
- half-life ([5]; both, 8 mg, T½): 1.44 h
- half-life ([5]; both, 16 mg, T½): 1.3 h
- half-life ([5]; both, Mean half-life): 1.2 to 1.4 h
- Tmax ([5]; female, 8 mg): 1 h
- AUC ([5]; female, 8 mg): 104 ng·h/mL
- Cmax ([5]; female, 8 mg): 43.2 ng/mL
- half-life ([5]; female, 8 mg, T½): 1.41 h
- Tmax ([5]; female, po, 8 mg): 1 h
- AUC ([5]; female, po, 8 mg): 138 ng·h/mL
- Cmax ([5]; female, po, 8 mg): 52.2 ng/mL
- half-life ([5]; female, po, 8 mg, T½): 1.45 h
- Tmax ([5]; female, po, 16 mg): 1 h
- Tmax ([5]; male, 8 mg): 1 h
- AUC ([5]; male, 8 mg): 74.5 ng·h/mL
- Cmax ([5]; male, 8 mg): 35.8 ng/mL
- half-life ([5]; male, 8 mg, T½): 1.22 h
- Tmax ([5]; male, po, 8 mg): 1 h
- AUC ([5]; male, po, 8 mg): 89.9 ng·h/mL
- Cmax ([5]; male, po, 8 mg): 35.5 ng/mL
- half-life ([5]; male, po, 8 mg, T½): 1.44 h
- Tmax ([5]; male, po, 16 mg): 1 h
